The text below walks through data of paper PMC3306394 (PLoS ONE, 2012).

Each structure is given as a SMILES string. Read-outs that look alike come from different tables or passages of the source.

For orientation: Km means the substrate concentration at which the rate is half of its maximum. What is called Kd is a measure of binding affinity in units of concentration.

Assay [1] deals with T1, HpSK M10A (Helicobacter pylori, UniProt P56073, M10A).
T1 construct: His6 (own knowledge: pQE30 vector gives an N-terminal MRGS-His6 tag); made in house; host or cells: E. coli
T1 sequence (P56073 whole entry M10A): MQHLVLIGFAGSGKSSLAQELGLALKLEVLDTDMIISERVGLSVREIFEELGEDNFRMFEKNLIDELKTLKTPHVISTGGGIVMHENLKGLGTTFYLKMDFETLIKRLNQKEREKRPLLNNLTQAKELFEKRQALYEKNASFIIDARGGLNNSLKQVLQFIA
Format: biochemical. To be noted: apparent value. The method, then: SK activity was determined by coupling the release of ADP from the SK-catalyzed reaction to the oxidation of NADH using pyruvate kinase (EC 2.7.1.40) and lactate dehydrogenase (EC 1.1.1.27) as coupling enzymes. […] All assays were conducted in a 96-well microplate and analyzed with a spectrophotometer (FLUOstar OPTIMA, BMG LABTECH). The relative activity of wild-type HpSK was set to 100%.

The target in assay [2] is T2, HpSK F48Y (Helicobacter pylori, UniProt P56073, F48Y).
T2 construct: His6 (own knowledge: pQE30 vector gives an N-terminal MRGS-His6 tag); made in house; host or cells: E. coli
T2 sequence (P56073 whole entry F48Y): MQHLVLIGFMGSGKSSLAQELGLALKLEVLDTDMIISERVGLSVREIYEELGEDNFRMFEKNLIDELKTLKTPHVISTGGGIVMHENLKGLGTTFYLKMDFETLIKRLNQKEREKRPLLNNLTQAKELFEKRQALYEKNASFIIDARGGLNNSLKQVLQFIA
The assay is classed as biochemical. On the procedure: (§1) SK activity was determined by coupling the release of ADP from the SK-catalyzed reaction to the oxidation of NADH using pyruvate kinase (EC 2.7.1.40) and lactate dehydrogenase (EC 1.1.1.27) as coupling enzymes. Shikimate-dependent oxidation of NADH was monitored by a decrease in A340 (ε = 6,200 M^−1 cm^−1). […] All assays were conducted in a 96-well microplate and analyzed with a spectrophotometer (FLUOstar OPTIMA, BMG LABTECH). The relative activity of wild-type HpSK was set to 100%.

Assay [3] deals with T3, HpSK E114A (Helicobacter pylori, UniProt P56073, E114A).
T3 construct: His6 (own knowledge: pQE30 vector gives an N-terminal MRGS-His6 tag); made in house; host or cells: E. coli
T3 sequence (P56073 whole entry E114A): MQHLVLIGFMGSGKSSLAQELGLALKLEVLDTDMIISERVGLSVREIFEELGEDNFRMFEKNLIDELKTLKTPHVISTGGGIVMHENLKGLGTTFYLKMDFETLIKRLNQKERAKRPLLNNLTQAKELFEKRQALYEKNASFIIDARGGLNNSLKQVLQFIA
Format: biochemical. The method, then:
as §1

For assay [4], the target named is T4, wild-type HpSK (Helicobacter pylori shikimate kinase) (Helicobacter pylori, UniProt P56073).
T4 construct: His6 (own knowledge: the pQE30 vector gives an N-terminal MRGS-His6 tag); made in house; host or cells: E. coli (printed for the mutants; same procedures as for wild type)
T4 sequence (P56073 whole entry): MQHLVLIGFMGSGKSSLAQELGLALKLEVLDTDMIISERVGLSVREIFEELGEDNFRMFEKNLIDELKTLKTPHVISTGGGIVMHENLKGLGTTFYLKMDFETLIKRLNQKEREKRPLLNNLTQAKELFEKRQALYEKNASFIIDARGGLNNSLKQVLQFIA
As to conditions: wild-type enzyme, cited from earlier work.

Assay [5] has as its target T1, HpSK M10A. Nature of the assay: Isothermal titration calorimetry, M10A. Format: binding. To be noted: ITC, 25°C, ND = not detectable. The method, then: (§2) Titration experiments were performed by ITC using an iTC200 or VP-ITC instrument (MicroCal, Piscataway, NJ, USA), and a 0.2-ml (iTC200) or 1.4-ml (VP-ITC) sample cell containing the macromolecule solution. All proteins were prepared in a buffer containing 20 mM potassium phosphate, pH 7.3. Prior to the experiment, samples were filtered and degassed under vacuum for 10 min in a Thermo Vac system (Microcal). The sample cell was filled with sample protein solution (15 µM) or the working buffer. Procedures of iTC200 titrations with a ligand (450 µM) were as follows: an initial 1-µl injection (not included in data analysis) followed by 19 injections of 2 µl each, with 2-min intervals between injections. Similar procedures for VP-ITC titrations were also performed: an initial 2-µl injection followed by 24 injections of 10 µl each, with 3-min intervals between injections. The experiments were performed with a constant stirrer speed of 1000 rpm (iTC200) or 290 rpm (VP-ITC) at 25°C. The binding isotherms were fitted to a one-site binding model to obtain the thermodynamic parameters with the initial point discarded. Data analysis was conducted using Origin 7 software.
In general terms: Isothermal titration calorimetry measures the heat released or taken up as one component is titrated into another.

The target of a further assay is T5, wild-type HpSK (Helicobacter pylori, UniProt P56073).
T5 construct: His6 (own knowledge: the pQE30 vector gives an N-terminal MRGS-His6 tag); made in house; host or cells: E. coli (printed for the mutants; same procedures as for wild type)
T5 sequence (P56073 whole entry): as above
Nature of the assay: Isothermal titration calorimetry, wild-type HpSK. The assay is classed as binding. The method, then:
as §2

Assay [6] concerns the target T3, HpSK E114A. Nature of the assay: Isothermal titration calorimetry, E114A. The assay is classed as binding. As to conditions: ITC, 25°C, ND = not detectable. On the procedure:
as §2

A further assay concerns the target T6, HpSK R132K (Helicobacter pylori, UniProt P56073, R132K).
T6 construct: His6 (own knowledge: pQE30 vector gives an N-terminal MRGS-His6 tag); made in house; host or cells: E. coli
As to the kind of experiment: Isothermal titration calorimetry, R132K. Format: binding. As to conditions: ITC, 25°C, ND = not detectable. The method, then:
as §2

For assay [7], the target named is T2, HpSK F48Y. Nature of the assay: Isothermal titration calorimetry, F48Y. Format: binding. As to conditions: ITC, 25°C, ND = not detectable. On the procedure:
as §2

The target of a further assay is T7, HpSK D33A (Helicobacter pylori, UniProt P56073, D33A).
T7 construct: His6 (own knowledge: pQE30 vector gives an N-terminal MRGS-His6 tag); made in house; host or cells: E. coli
T7 sequence (P56073 whole entry D33A): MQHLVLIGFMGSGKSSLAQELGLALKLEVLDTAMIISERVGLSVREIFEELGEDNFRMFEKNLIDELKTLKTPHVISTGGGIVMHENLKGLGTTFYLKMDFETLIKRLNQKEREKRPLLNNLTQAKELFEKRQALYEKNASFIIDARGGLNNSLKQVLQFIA
Nature of the assay: Isothermal titration calorimetry, D33A. Format: binding. As to conditions: ITC, 25°C, ND = not detectable. The method, then:
as §2

In a further assay the target is T8, HpSK R132A (Helicobacter pylori, UniProt P56073, R132A).
T8 construct: His6 (own knowledge: pQE30 vector gives an N-terminal MRGS-His6 tag); made in house; host or cells: E. coli
T8 sequence (P56073 whole entry R132A): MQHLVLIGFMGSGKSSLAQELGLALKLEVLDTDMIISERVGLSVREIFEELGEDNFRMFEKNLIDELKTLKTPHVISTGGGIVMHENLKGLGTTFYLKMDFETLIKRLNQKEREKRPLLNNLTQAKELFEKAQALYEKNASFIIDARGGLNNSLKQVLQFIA
Nature of the assay: Isothermal titration calorimetry, R132A. Format: binding. As to conditions: ITC, 25°C, ND = not detectable. The method, then: as §2

Another assay addresses T9, HpSK R116K (Helicobacter pylori, UniProt P56073, R116K).
T9 construct: His6 (own knowledge: pQE30 vector gives an N-terminal MRGS-His6 tag); made in house; host or cells: E. coli
Nature of the assay: Isothermal titration calorimetry, R116K. Format: binding. To be noted: ITC, 25°C, ND = not detectable. The method, then:
as §2

In another assay the target is T10, HpSK F48A (Helicobacter pylori, UniProt P56073, F48A).
T10 construct: His6 (own knowledge: pQE30 vector gives an N-terminal MRGS-His6 tag); made in house; host or cells: E. coli
T10 sequence (P56073 whole entry F48A): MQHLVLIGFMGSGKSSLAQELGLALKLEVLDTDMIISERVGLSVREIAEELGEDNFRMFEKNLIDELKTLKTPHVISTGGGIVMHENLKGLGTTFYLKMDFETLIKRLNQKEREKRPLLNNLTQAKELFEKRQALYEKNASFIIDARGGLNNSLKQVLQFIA
As to the kind of experiment: Isothermal titration calorimetry, F48A. Format: binding. To be noted: ITC, 25°C, ND = not detectable. The method, then:
as §2

The next assay deals with T11, HpSK R57A (Helicobacter pylori, UniProt P56073, R57A).
T11 construct: His6 (own knowledge: pQE30 vector gives an N-terminal MRGS-His6 tag); made in house; host or cells: E. coli
T11 sequence (P56073 whole entry R57A): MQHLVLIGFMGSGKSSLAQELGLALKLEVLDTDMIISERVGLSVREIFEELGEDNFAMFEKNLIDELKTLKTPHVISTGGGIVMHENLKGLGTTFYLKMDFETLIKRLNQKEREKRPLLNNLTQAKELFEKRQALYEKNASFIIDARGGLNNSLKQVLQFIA
As to the kind of experiment: Isothermal titration calorimetry, R57A. To be noted: ITC, 25°C, ND = not detectable. Format: binding. On the procedure: as §2

The target in another assay is T12, HpSK R57K (Helicobacter pylori, UniProt P56073, R57K).
T12 construct: His6 (own knowledge: pQE30 vector gives an N-terminal MRGS-His6 tag); made in house; host or cells: E. coli
T12 sequence (P56073 whole entry R57K): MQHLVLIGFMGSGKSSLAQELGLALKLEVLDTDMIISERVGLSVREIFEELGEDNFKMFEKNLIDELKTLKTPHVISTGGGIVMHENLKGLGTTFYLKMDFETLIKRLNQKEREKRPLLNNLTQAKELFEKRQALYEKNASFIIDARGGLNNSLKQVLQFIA
Nature of the assay: Isothermal titration calorimetry, R57K. The assay is classed as binding. As to conditions: ITC, 25°C, ND = not detectable. The method, then:
as §2

In a further assay the target is T13, HpSK D33E (Helicobacter pylori, UniProt P56073, D33E).
T13 construct: His6 (own knowledge: pQE30 vector gives an N-terminal MRGS-His6 tag); made in house; host or cells: E. coli
T13 sequence (P56073 whole entry D33E): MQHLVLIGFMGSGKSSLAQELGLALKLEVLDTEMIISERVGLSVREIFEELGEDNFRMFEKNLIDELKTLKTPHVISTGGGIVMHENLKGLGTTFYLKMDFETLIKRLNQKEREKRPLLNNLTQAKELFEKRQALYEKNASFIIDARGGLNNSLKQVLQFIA
As to the kind of experiment: Isothermal titration calorimetry, D33E. As to conditions: ITC, 25°C, ND = not detectable. The assay is classed as binding. On the procedure: as §2

The target in another assay is T14, HpSK R116A (Helicobacter pylori, UniProt P56073, R116A).
T14 construct: His6 (own knowledge: pQE30 vector gives an N-terminal MRGS-His6 tag); made in house; host or cells: E. coli
T14 sequence (P56073 whole entry R116A): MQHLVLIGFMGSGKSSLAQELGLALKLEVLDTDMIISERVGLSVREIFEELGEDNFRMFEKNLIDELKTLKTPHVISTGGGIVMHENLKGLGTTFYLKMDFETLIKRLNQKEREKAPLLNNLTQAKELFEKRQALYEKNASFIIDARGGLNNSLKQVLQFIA
As to the kind of experiment: Isothermal titration calorimetry, R116A. The assay is classed as binding. As to conditions: ITC, 25°C, ND = not detectable. On the procedure: as §2

Where [8] appears, read: apparent value, read-out: Km (MgATP).
Setting [9] is: read-out: Km (shikimate), apparent value.

T9 sequence (P56073 whole entry R116K): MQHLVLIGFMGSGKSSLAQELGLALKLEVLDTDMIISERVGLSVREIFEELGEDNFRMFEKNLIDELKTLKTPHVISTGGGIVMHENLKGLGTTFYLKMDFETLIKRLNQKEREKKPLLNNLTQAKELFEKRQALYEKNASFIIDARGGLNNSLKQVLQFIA
T6 sequence (P56073 whole entry R132K): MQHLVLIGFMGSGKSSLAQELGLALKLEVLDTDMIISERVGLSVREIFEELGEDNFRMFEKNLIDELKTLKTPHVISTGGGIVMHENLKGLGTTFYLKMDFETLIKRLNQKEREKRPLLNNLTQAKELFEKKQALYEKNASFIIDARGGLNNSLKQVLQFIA

In the case of `Nc1ncnc2c1ncn2[C@@H]1O[C@H](COP(=O)(O)OP(=O)(O)OP(=O)(O)O)[C@@H](O)[C@H]1O` [ATP], the “V max(MgATP)” value is 26 ± 1 µmol/min/mg on HpSK M10A [1], 17 ± 1 µmol/min/mg on HpSK F48Y [2] (apparent value), 26 ± 2 µmol/min/mg on HpSK E114A [3] (apparent value) and 26 ± 1 µmol/min/mg in assay [4]. Further, the Km on HpSK M10A [1] (read-out: Km (MgATP)) was 293 µM; at HpSK F48Y [2] (setting [8]), 231 µM; at HpSK E114A [3] (setting [8]), 143 µM; in [4] (read-out: Km (MgATP)) it was 101 µM.

As to `O=C(O)C1=C[C@@H](O)[C@@H](O)[C@H](O)C1` [shikimate, shikimic acid], the “V max(shikimate)” value at HpSK M10A [1] was 16 ± 1 µmol/min/mg; on HpSK F48Y [2] (apparent value), 13 ± 2 µmol/min/mg; on HpSK E114A [3] (apparent value) it was 23 ± 1 µmol/min/mg; in assay [4], 22 ± 1 µmol/min/mg. For the same compound, the Km was 291 µM at HpSK F48Y [2] (setting [9]), 39 µM on HpSK E114A [3] (setting [9]) and 60 µM in assay [4] (read-out: Km (shikimate)). The Kd was 34 ± 7 µM on HpSK M10A [5]; 0.32 ± 0.07 µM at wild-type HpSK; 0.33 ± 0.03 µM at HpSK E114A [6]; “no heat release” on HpSK R132K; 5.2 ± 0.4 µM at HpSK F48Y [7]; “no heat release” at HpSK D33A. In addition, the dissociation constant (Kd) result on HpSK R132A is reported as “no heat release”; at HpSK R116K it was “no heat release”; on HpSK F48A it was “lost binding activity”; at HpSK R57A, “no heat release”; on HpSK R57K, “no heat release”; on HpSK D33E it was “no heat release”. Moreover, the Kd entry at HpSK R116A is reported as “no heat release”.
